In patent US11845892B2, “Use of complex polyesteramines and polyester polyquaternary ammonium compounds as corrosion inhibitors” (Clariant International, Ltd., priority 2021, dated 2023):

Assay: Rotating Cage Autoclave Test (RCA), sour
Conditions: 150 ppm, 200 ppm H2S, 15% CO2, balance N2, 65° C., 70 bar, 72 hours, 1700 rpm
Protocol: In order to evaluate the corrosion inhibition efficacy of the polyesters according to the invention, 4 different test methods were employed: Linear Polarizing Resistance (LPR), Rotating Cylinder Electrode Test (RCE), Shell wheel test and High Pressure/High Temperature Rotating Cage Autoclave Test (RCA). For all testing 3.5% NaCl brine was used. For the application tests the materials to be tested (inventive as well as comparative) were diluted with butyl glycol to an active content of 25 wt.-% prior to testing. The dosage rates given in the tables refer to these 25 wt.-% active formulations.
Autoclaves equipped with rotating cages (RCA) were used to simulate high shear conditions for the purpose of evaluating system corrosivity and inhibitor performance. The testing solution consisted of 720 mL 3.5% NaCl brine and 80 mL LVT-200 oil. The synthetic brine had three cycles of vacuum/CO2 charge to the vessel prior to initiating the test to remove dissolved oxygen and to achieve an anaerobic system. Two weight loss corrosion coupons fixed on the rotating cage were used in each autoclave. General corrosion rates were calculated by weight loss measurement. A blank was run for comparison. Test conditions have been summarized below in Table 5.

## N-tallow alkyl hexahydropyrimidinium ethoxylate methosulfate [sample 6]
  Average corrosion rate [mpy]: 8.99 mpy
  Percent protection: 92.8%
